Measured values taken from patent publication US20240238423A9, “TETRAHYDROISOQUINOLINE HETEROBIFUNCTIONAL BCL-XL DEGRADERS” (Treeline Biosciences, Inc., priority 2022, published 2024).
Like-named read-outs stand apart in the source and are kept apart here.

Molecular target: T1, Human BCL-XL protein (N-terminal HiBiT tagged BCL-XL in HT1080 cells) (Homo sapiens, UniProt Q07817)
T1 construct: expressed in transfected cells; host or cells: HT-1080 (ATCC CCL-121), stably transduced with lentivirus pLV-UBC-N-HiBiT-BCL-XL-PGK-puro and selected with puromycin
Assay: HiBiT based degradation assay
Format: cell-based
Conditions: HT1080 cells expressing HiBiT-BCL-XL; for Ymin (24 h) / Ymin (6 h): BCL-XL degradation normalized with DMSO control; for DC50: BCL-XL degradation
Procedure, shortened: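 HT1080 cells stably transduced by lentivirus with N-terminally HiBiT-tagged human BCL-XL and kept under 1 μg/mL puromycin selection were seeded at three thousand cells per well in 40 μL RPMI 1640 into 384-well plates pre-spotted with compounds across a concentration range. Luminescence was read on a PHERAstar FSX, normalized to DMSO, and fitted with a four-parameter logistic model.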

T1 sequence (Q07817 whole entry): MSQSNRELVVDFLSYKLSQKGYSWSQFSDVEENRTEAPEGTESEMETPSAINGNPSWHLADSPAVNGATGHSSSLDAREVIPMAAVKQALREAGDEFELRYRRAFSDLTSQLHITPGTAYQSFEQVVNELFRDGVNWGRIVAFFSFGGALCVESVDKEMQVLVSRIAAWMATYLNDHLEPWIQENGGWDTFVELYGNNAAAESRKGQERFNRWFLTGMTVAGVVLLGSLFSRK

| Ymin (24 h) | DC50 (24 h, read-out: EC50 (24 h)) [nM] | Ymin (6 h) | DC50 (6 h, read-out: EC50 (6 h)) [nM] | Structure (SMILES) |
| --- | --- | --- | --- | --- |
| A (Ymin < 50%) | < 100 |  |  | Cc1c(O[C@H]2CC[C@H](CC[C@H](C)N3CCN(c4ccc5c(C6CCC(=O)NC6=O)nn(C)c5c4)CC3)CC2)cccc1-c1ccc(N2CCc3cccc(C(=O)Nc4nc5ccccc5s4)c3C2)nc1C(=O)O (single isomer, unassigned) [Compound 281a] |
| A (Ymin < 50%) | < 100 |  |  | Cc1c(OCC[C@H]2CC23CCN(CC(=O)Nc2ccc4c(C5CCC(=O)NC5=O)nn(C)c4c2)CC3)cccc1-c1ccc(N2CCc3cccc(C(=O)Nc4nc5ccccc5s4)c3C2)nc1C(=O)O (stereo in doubt) [Compound 289b, 6-(8-(benzo[d]thiazol-2-ylcarbamoyl)-3,4-dihydroisoquinolin-2(1H)-yl)-3-(3-(2-((1R)-6-(2-((3-(2,6-dioxopiperidin-3-yl)-1-methyl-1H-indazol-6-yl)amino)-2-oxoethyl)-6-azaspiro[2.5]octan-1-yl)ethoxy)-2-methylphenyl)picolinic acid] |
| A (Ymin < 50%) | < 100 |  |  | Cc1cc(OCCC[C@H]2CCN(CC(=O)Nc3ccc4c(C5CCC(=O)NC5=O)nn(C)c4c3)[C@H](C)C2)ccc1-c1ccc(N2CCc3cccc(C(=O)Nc4nc5ccccc5s4)c3C2)nc1C(=O)O (stereo partly drawn) [Compound 344c, 6-[8-(1,3-benzothiazol-2-ylcarbamoyl)-3,4-dihydro-1H-isoquinolin-2-yl]-3-[4-[3-[(2R,4S)-1-[2-[[3-(2,6-dioxo-3-piperidyl)-1-methyl-indazol-6-yl]amino]-2-oxo-ethyl]-2-methyl-4-piperidyl]propoxy]-2-methyl-phenyl]pyridine-2-carboxylic acid] |
| A (Ymin < 50%) | < 100 | B (50% ≤ Ymin < 70%) | < 100 | Cc1c(OCCCN2CCN(CC(=O)Nc3ccc4c(C5CCC(=O)NC5=O)nn(C)c4c3)CC2)cccc1-c1ccc(N2CCc3cccc(C(=O)Nc4nc5ccccc5s4)c3C2)nc1C(=O)O (stereo not drawn) [Compound 104, 6-[8-(1,3-benzothiazol-2-ylcarbamoyl)-3,4-dihydro-1H-isoquinolin-2-yl]-3-[3-[3-[4-[2-[[3-(2,6-dioxo-3-piperidyl)-1-methyl-indazol-6-yl]amino]-2-oxo-ethyl]piperazin-1-yl]propoxy]-2-methyl-phenyl]pyridine-2-carboxylic acid] |
| A (Ymin < 50%) | < 100 | A (Ymin < 50%) | 100 to 1000 | Cc1c(O[C@H]2CC[C@H](CCC(=O)N3CCN(c4cccc5c(C6CCC(=O)NC6=O)nn(C)c45)CC3)CC2)cccc1-c1ccc(N2CCc3cccc(C(=O)Nc4nc5ccccc5s4)c3C2)nc1C(=O)O (stereo partly drawn) [Compound 146a, 6-(8-(benzo[d]thiazol-2-ylcarbamoyl)-3,4-dihydroisoquinolin-2(1H)-yl)-3-(3-(((1r,4r)-4-(3-(4-(3-(2,6-dioxopiperidin-3-yl)-1-methyl-1H-indazol-7-yl)piperazin-1-yl)-3-oxopropyl)cyclohexyl)oxy)-2-methylphenyl)picolinic acid] |
| A (Ymin < 50%) | < 100 |  |  | Cc1c(O[C@H]2CC[C@H](CCCN3CCN(c4cccc5c(C6CCC(=O)NC6=O)nn(C)c45)C[C@H]3C)CC2)cccc1-c1ccc(N2CCc3cccc(C(=O)Nc4nc5ccccc5s4)c3C2)nc1C(=O)O (stereo partly drawn) [Compound 275a, 6-(8-(benzo[d]thiazol-2-ylcarbamoyl)-3,4-dihydroisoquinolin-2(1H)-yl)-3-(3-(((1S,4r)-4-(3-((2R)-4-(3-(2,6-dioxopiperidin-3-yl)-1-methyl-1H-indazol-7-yl)-2-methylpiperazin-1-yl)propyl)cyclohexyl)oxy)-2-methylphenyl)picolinic acid] |
| A (Ymin < 50%) | < 100 |  |  | Cc1c(O[C@H]2CC[C@H](CCCCN3CCN(c4ccc5c(C6CCC(=O)NC6=O)nn(C)c5c4C)CC3)CC2)cccc1-c1ccc(N2CCc3cccc(C(=O)Nc4nc5ccccc5s4)c3C2)nc1C(=O)O (stereo partly drawn) [Compound 324a, 6-(8-(benzo[d]thiazol-2-ylcarbamoyl)-3,4-dihydroisoquinolin-2(1H)-yl)-3-(3-(((1s,4r)-4-(4-(4-(3-(2,6-dioxopiperidin-3-yl)-1,7-dimethyl-1H-indazol-6-yl)piperazin-1-yl)butyl)cyclohexyl)oxy)-2-methylphenyl)picolinic acid] |
| A (Ymin < 50%) | < 100 |  |  | Cc1c(O[C@H]2CC[C@H](CCCN3CCN(c4ccc5c(C6CCC(=O)NC6=O)nn(C)c5c4)[C@@H](C(F)(F)F)C3)CC2)cccc1-c1ccc(N2CCc3cccc(C(=O)Nc4nc5ccccc5s4)c3C2)nc1C(=O)O (stereo partly drawn) [Compound 301a, 6-(8-(benzo[d]thiazol-2-ylcarbamoyl)-3,4-dihydroisoquinolin-2(1H)-yl)-3-(3-(((1s,4r)-4-(3-((3R)-4-(3-(2,6-dioxopiperidin-3-yl)-1-methyl-1H-indazol-6-yl)-3-(trifluoromethyl)piperazin-1-yl)propyl)cyclohexyl)oxy)-2-methylphenyl)picolinic acid] |
|  |  | B (50% ≤ Ymin < 70%) | < 100 | Cc1c(-c2ccc(N3CCc4cccc(C(=O)Nc5nc6ccccc6s5)c4C3)nc2C(=O)NCCCCCCCCCC(=O)Nc2cccc3c(C4CCC(=O)NC4=O)nn(C)c23)cnn1CC12CC3CC(CC(C3)C1)C2 [Compound 109, 2-(5-(1-((3R, 5R, 7R)-adamantan-1-ylmethyl)-5-methyl-1H-pyrazol-4-yl)-6-((10-((3-(2,6-dioxopiperidin-3-yl)-1-methyl-1H-indazol-7-yl)amino)-10-oxodecyl)carbamoyl)pyridin-2-yl)-N-(benzo[d]thiazol-2-yl)-1,2,3,4-tetrahydroisoquinoline-8-carboxamide] |
| A (Ymin < 50%) | < 100 |  |  | Cc1c(OCCCC2CCN(CCN3CCC(c4cccc5c(C6CCC(=O)NC6=O)nn(C)c45)CC3)CC2)cccc1-c1ccc(N2CCc3cccc(C(=O)Nc4nc5ccccc5s4)c3C2)nc1C(=O)O (stereo not drawn) [Compound 256, 6-[8-(1,3-benzothiazol-2-ylcarbamoyl)-3,4-dihydro-1H-isoquinolin-2-yl]-3-[3-[3-[1-[2-[4-[3-(2,6-dioxo-3-piperidyl)-1-methyl-indazol-7-yl]-1-piperidyl]ethyl]-4-piperidyl]propoxy]-2-methyl-phenyl]pyridine-2-carboxylic acid] |
| A (Ymin < 50%) | < 100 |  |  | Cc1c(O[C@H]2CC[C@H](CCC[C@@H](C)N3CCN(c4cccc5c(C6CCC(=O)NC6=O)nn(C)c45)CC3)CC2)cccc1-c1ccc(N2CCc3cccc(C(=O)Nc4nc5ccccc5s4)c3C2)nc1C(=O)O (single isomer, unassigned) [Compound 349b] |
| A (Ymin < 50%) | < 100 |  |  | Cc1cc(O[C@H]2CC[C@H](CCC(=O)N3CCN(c4ccc5c(C6CCC(=O)NC6=O)nn(C)c5c4)CC3)CC2)ccc1-c1ccc(N2CCc3cccc(C(=O)Nc4nc5ccccc5s4)c3C2)nc1C(=O)O (stereo partly drawn) [Compound 251a, 6-(8-(benzo[d]thiazol-2-ylcarbamoyl)-3,4-dihydroisoquinolin-2(1H)-yl)-3-(4-(((1r,4r)-4-(3-(4-(3-(2,6-dioxopiperidin-3-yl)-1-methyl-1H-indazol-6-yl)piperazin-1-yl)-3-oxopropyl)cyclohexyl)oxy)-2-methylphenyl)picolinic acid] |
| A (Ymin < 50%) | < 100 |  |  | Cc1c(O[C@H]2CC[C@H](CCCC(C)(C)N3CCN(c4ccc5c(C6CCC(=O)NC6=O)nn(C)c5c4)CC3)CC2)cccc1-c1ccc(N2CCc3cccc(C(=O)Nc4nc5ccccc5s4)c3C2)nc1C(=O)O (stereo partly drawn) [Compound 350a, 6-(8-(benzo[d]thiazol-2-ylcarbamoyl)-3,4-dihydroisoquinolin-2(1H)-yl)-3-(3-(((1s,4r)-4-(4-(4-(3-(2,6-dioxopiperidin-3-yl)-1-methyl-1H-indazol-6-yl)piperazin-1-yl)-4-methylpentyl)cyclohexyl)oxy)-2-methylphenyl)picolinic acid] |
| A (Ymin < 50%) | < 100 |  |  | Cc1c(O[C@H]2CC[C@H](CCCN3CCC(c4cccc5c(C6CCC(=O)NC6=O)nn(C)c45)C3)CC2)cccc1-c1ccc(N2CCc3cccc(C(=O)Nc4nc5ccccc5s4)c3C2)nc1C(=O)O (single isomer, unassigned) [Compound 320a] |
| B (50% ≤ Ymin < 70%) | 100 to 1000 |  |  | Cc1c(OCCCC2CCN(CC(=O)Nc3cc4c(cc3F)c(C3CCC(=O)NC3=O)nn4C)CC2)cccc1-c1ccc(N2CCc3cccc(C(=O)Nc4nc5ccccc5s4)c3C2)nc1C(=O)O (stereo not drawn) [Compound 295, 6-[8-(1,3-benzothiazol-2-ylcarbamoyl)-3,4-dihydro-1H-isoquinolin-2-yl]-3-[3-[3-[1-[2-[[3-(2,6-dioxo-3-piperidyl)-5-fluoro-1-methyl-indazol-6-yl]amino]-2-oxo-ethyl]-4-piperidyl]propoxy]-2-methyl-phenyl]pyridine-2-carboxylic acid] |

| Structure (SMILES) | Ymin (24 h) | DC50 (24 h, read-out: EC50 (24 h)) [nM] | Ymin (6 h) | DC50 (6 h, read-out: EC50 (6 h)) [nM] |
| --- | --- | --- | --- | --- |
| Cc1c(OCC[C@@H](C)C2CCN(CC(=O)Nc3cccc4c(C5CCC(=O)NC5=O)nn(C)c34)CC2)cccc1-c1ccc(N2CCc3cccc(C(=O)Nc4nc5ccccc5s4)c3C2)nc1C(=O)O (stereo partly drawn) [Compound 173b, 6-[8-(1,3-benzothiazol-2-ylcarbamoyl)-3,4-dihydro-1H-isoquinolin-2-yl]-3-[3-[(3R)-3-[1-[2-[[3-(2,6-dioxo-3-piperidyl)-1-methyl-indazol-7-yl]amino]-2-oxo-ethyl]-4-piperidyl]butoxy]-2-methyl-phenyl]pyridine-2-carboxylic acid] | B (50% ≤ Ymin < 70%) | 100 to 1000 |  |  |
